According to publication PMC12419922, “Myristoylated Cathelicidin-DM Fused With ANG1-7: A Novel Self-Assembling Antimicrobial Peptide for the Treatment and Mechanism of Diabetic Infected Wounds” (Journal of Diabetes Research, 2025):
Where a SMILES comes first, the peptide text is derived from it.

What was measured:
[1] = tested on: HUVECs; experiment: Tube formation (angiogenesis) on Matrigel; type: cell-based, human; conditions: 9 h, n = 3
Experimental: The formation of vascular structure was observed by matrix glue experiment, and the angiogenesis ability was evaluated in Matrigel stent (Corning, New York). After treatment in each group, 300 μL (2 × 10^5 cells/mL) HUVECs were digested and inoculated into a 24-well plate containing Matrigel scaffold. After 9 h, the formation image of the tube was photographed.

[2] = tested on: HUVECs; experiment: NO secretion, Griess reaction; type: cell-based, human; conditions: HG + LPS (HG + LPS 0.5 times the original level), n = 3
Experimental: NO levels were determined using the Griess reaction. Briefly, 100 μL of cell culture supernatant was mixed with an equal volume of Griess reagent and incubated at room temperature in the dark for 30 min. The absorbance of the reaction mixture was measured at 540 nm using a microplate reader. Sodium nitrite (NaNO2) was used as a standard to generate a calibration curve, and the NO concentration in the samples was calculated accordingly. All experiments were independently performed in triplicate to ensure data reliability and reproducibility.

[3] = tested on: S. aureus (ATCC 25923) infected diabetic wound; experiment: Diabetic mouse S. aureus-infected full-thickness skin wound model; conditions: for wound healing rate: 7th day, 20 μg/mL in PBS, 200 μL subcutaneously for 3 days, n = 4
Experimental: BALB/c male mice are from the Experimental Animal Center of Air Force Military Medical University. One group was fed a normal diet, and the other five groups were fed a high-fat diet for 4 weeks and then injected with 35 mg/kg streptozotocin (STZ, 35 mg/kg, Sigma) intraperitoneally for 3 days. […] After intraperitoneal injection of pentobarbital sodium (1%, […]), the dorsal hair of each animal was shaved off, and a circular full-thickness skin wound was created on the back using a 10-mm sterile mouse punch. S. aureus (ATCC 25923) was used to infect the wound site of mice, and a full-thickness wound infection model of mice was established. S. aureus was first resuscitated by operation in a biological ultra-clean table. A single colony was picked and incubated in LB medium at 37°C and 200 rpm. The concentration of the above S. aureus solution was adjusted to 1 × 10^8 CFU/mL to infect the wound of mice. Then, 24 h after S. aureus infection, three drugs, DM (20 μg/mL), ANG1-7 (20 μg/mL), and MYR-DM-ANG1-7 (20 μg/mL), were dissolved in PBS buffer, and 200 μL was injected subcutaneously for 3 days. After drug injection, the wound pus was diluted and coated with plate culture to observe the colony situation. The gross specimen imaging system (GF-7A, China) was used to record the wounds of mice on the same day and every other day after the formation of the wounds. The rubber ring with adhesive backing was used to fix the wound and prevent it from shrinking. ImageJ analysis software (NIH, Bethesda, MD, United States) was used to calculate and analyze the wound area. After 0, 3, 7, 10, and 14 days, the size of the infected wound was evaluated by rubber ring. The wound closure was measured as follows: the wound healing rate (%) = [W0 − Wn]/W0 × 100%, where W0 and Wn represent the wound area on the 0th and nth days, respectively (n = 4).
On the 14th day, the skin tissue was fixed in 4% paraformaldehyde solution, dehydrated, embedded in paraffin, sliced, and stained with hematoxylin–eosin (HE) and Masson. Skin tissue sections on Day 7 were immunofluorescently stained using rabbit anti-mouse CD31 (Cell Signaling Technology) and α-SMA (Cell Signaling Technology), and all stained sections were observed under the slide scanner (Aperio AT 2; Leica Biosystems, Germany).

[4] = tested on: HUVECs; experiment: MDA, thiobarbituric acid method; type: cell-based, human; conditions: HUVEC supernatant, HG + LPS (HG + LPS increased by 1.65 times); n = 3
Experimental: The level of MDA was determined by the thiobarbituric acid (TBA) method. Briefly, 100 μL of cell supernatant was mixed with 200 μL of a 10% trichloroacetic acid solution of 0.67% TBA. The mixture was incubated at 95°C for 30 min, cooled on ice, and centrifuged at 12,000 × g at 4°C for 10 min. The absorbance of the supernatant was measured at 532 nm using an enzyme-labeled instrument. The experiments were repeated three times.

[5] = tested on: HUVECs; experiment: Scratch wound healing assay; type: cell-based, human; conditions: HG + LPS, 20 μg/mL, n = 3; for wound healing rate (scratch assay): after 12 h; for healing area (scratch assay): at 48 h
Experimental: In a 6-well plate, HUVECs (2 × 10^5 cells/well) were seeded. The cells were starved in serum-free medium for 12 h, and then, a scratch was made vertically using a 200-μL pipette tip. […]

[6] = tested on: PI3K/AKT/eNOS signaling pathway, MasR in HUVECs; experiment: Western blot of PI3K/AKT/eNOS signaling pathway and MasR; type: cell-based, human; conditions: inhibitor group
Experimental: After the specified treatments, HUVECs were harvested using a cell scraper and lysed in cell lysis buffer (Wuhan Boster Biological Engineering Co., Ltd.) for 30 min at 4°C. Total protein was quantified using a BCA protein assay kit. Lysate (20 μg) from each sample was separated by 10% sodium dodecyl sulfate–polyacrylamide gel electrophoresis (SDS-PAGE) and then transferred to a polyvinylidene fluoride (PVDF) membrane. The membrane was blocked with a fresh blocking buffer containing 5% skim milk in Tris-buffered saline with 0.1% Tween 20 (TBS-T) for 2 h at room temperature and then incubated with primary antibodies against AKT (1:1000 dilution, #4691, Cell Signaling Technology), p-AKT (1:2000 dilution, #4060, Cell Signaling Technology), PI3K (1:1000 dilution, ab191606, Abcam), p-PI3K (1:1000 dilution, ab278545, Abcam), eNOS (1:1000 dilution, #32027, Cell Signaling Technology), p-eNOS (1:1000 dilution, ab215717, Abcam), and Mas (1:1000 dilution, #85003-1-RR, Proteintech) overnight at 4°C with shaking. The membrane was washed with TBS-T for 15 min and then incubated with horseradish peroxidase (HRP)–conjugated goat anti-rabbit secondary antibody (Wuhan Sanying Biotechnology Co., Ltd.) at a 1:2000 dilution in TBS-T and 3% skim milk for 90 min at room temperature. The membrane was washed three times with TBS-T, each for 15 min, and the immune reaction signals were detected using an ECL detection method. Protein bands were detected using a chemiluminescent gel imaging system (Bio-Rad Lab, China). Protein expression was quantitatively analyzed using ImageJ software (National Institutes of Health, Bethesda, MD, United States), and the experiment was repeated three times.

Compound	main connections of formed blood vessels ([1]; HG + LPS (HG + LPS group 0.3 times)) [times]	NO secretion in cell supernatant, increases to [2] [times]	wound healing rate [3] [%]	secretion of MDA, decreased by [4] [times]	wound healing rate (scratch assay) [5] [%]	healing area (scratch assay) [5] [%]	increase in p-PI3K, p-AKT, and p-eNOS levels [6]	length of formed blood vessels ([1]; HG + LPS (HG + LPS group 0.4 times)) [times]	fluorescence intensity of α-SMA ([3]; seventh day, vs the diabetes infection group, p < 0.01)	secretion of MDA, increased by [4] [times]
DRVYIH [ANG1-7, angiotensin 1-7]	1.4	1.65	40.69	0.56	44.7	72.06				
O=c1cc(N2CCOCC2)oc2c(-c3ccccc3)cccc12 [LY294002, reference compound]							significantly inhibited			
CC[C@H](C)[C@H](NC(=O)[C@H](CC(C)C)NC(=O)[C@@H](NC(=O)[C@H](Cc1ccc(O)cc1)NC(=O)CNC(=O)CNC(=O)[C@H](CCCNC(=N)N)NC(=O)[C@H](CC(C)C)NC(=O)[C@H](CCCCN)NC(=O)[C@H](CC(C)C)NC(=O)[C@H](CCCCN)NC(=O)[C@H](CS)NC(=O)[C@H](CC(C)C)NC(=O)[C@H](Cc1c[nH]c2ccccc12)NC(=O)CNC(=O)[C@H](CCCCN)NC(=O)[C@H](CS)NC(=O)[C@@H]1CCCN1C(=O)[C@H](CCCCN)NC(=O)[C@H](CCCNC(=N)N)NC(=O)[C@H](CCCNC(=N)N)NC(=O)[C@H](CO)NC(=O)[C@@H](N)CO)[C@@H](C)O)C(=O)NCC(=O)N[C@@H](CO)C(=O)N[C@@H](C)C(=O)N[C@H](C(=O)N[C@@H](CC(N)=O)C(=O)N[C@@H](CC(C)C)C(=O)N[C@@H](CC(N)=O)C(=O)N[C@@H](CCCNC(=N)N)C(=O)N1CCC[C@H]1C(=O)N[C@H](C(=O)N[C@@H](Cc1ccc(O)cc1)C(=O)N[C@H](C(=O)N[C@@H](CCCNC(=N)N)C(=O)N[C@@H](C)C(=O)O)C(C)C)[C@@H](C)O)[C@@H](C)O [DM, cathelicidin-DM] (H-SSRRKPCKGWLCKLKLRGGYTLIGSATNLNRPTYVRA-OH; N-terminus and C-terminus assumed)		1.2	69.86		25.2	52.6		1.3	significantly higher	1.2
